Data: patent US9724347B2, “1-pyrazolyl-3-(4-((2-anilinopyrimidin-4-yl)oxy)napththalen-1-yl) ureas as P38 MAP knase inhibitors” (Respivert Ltd., priority 2011, dated 2017)

How the values were obtained:
GSK 3α enzyme isoform = GSK 3α enzyme isoform (Homo sapiens (Human), UniProt P49840); experiment: GSK 3α enzyme inhibition (FRET, Z-LYTE); type: biochemical; settings: read-out: IC50 Values for Enzyme Inhibition GSK3α
Procedure: The enzyme inhibitory activities of compounds disclosed herein were determined by FRET using synthetic peptides labelled with both donor and acceptor fluorophores (Z-LYTE, Invitrogen Ltd., Paisley, UK).
The inhibitory activities of test compounds against the GSK 3α enzyme isoform (Invitrogen), were evaluated by determining the level of activation/phosphorylation of the target peptide.
The GSK3-α protein (500 ng/mL, 2.5 μL) was mixed with the test compound (2.5 μL at either 4 μg/mL, 0.4 μg/mL, 0.04 μg/mL, or 0.004 μg/mL) for 2 hr at RT. The FRET peptide (8 μM, 2.5 μL), which is a phosphorylation target for GSK3α, and ATP (40 μM, 2.5 μL) were then added to the enzyme/compound mixture and the resulting mixture incubated for 1 hr. Development reagent (protease, 5 μL) was added for 1 hr prior to detection in a fluorescence microplate reader (Varioskan® Flash, ThermoFisher Scientific).
In all cases, the site-specific protease cleaves non-phosphorylated peptide only and eliminates the FRET signal. Phosphorylation levels of each reaction were calculated using the ratio of coumarin emission (donor) over fluorescein emission (acceptor), for which low ratios indicate high phosphorylation and high ratios indicate low phosphorylation levels.

[1] = tested on: ICAM-1 expression in BEAS2B cells; experiment: Poly I:C-induced ICAM-1 expression in BEAS2B cells; type: cell-based, human; settings: Homo sapiens, BEAS-2B, read-out: PolyIC/ICAM1 IC50 (BEAS2B)
Procedure: Poly I:C was used in these studies as a simple, RNA virus mimic. Poly I:C-Oligofectamine mixture (1 μg/mL Poly I:C, ±2% Oligofectamine, 25 μL; Invivogen Ltd., San Diego, Calif., and Invitrogen, Carlsbad, Calif., respectively) was transfected into BEAS2B cells (human bronchial epithelial cells, ATCC). Cells were pre-incubated with final concentrations of test compounds for 2 hr and the level of ICAM-1 expression on the cell surface was determined by cell-based ELISA. At a time point 18 hr after poly I:C transfection, cells were fixed with 4% formaldehyde in PBS (100 μL) and then endogenous peroxidase was quenched by the addition of washing buffer (100 μL, 0.05% Tween in PBS: PBS-Tween) containing 0.1% sodium azide and 1% hydrogen peroxide. Cells were washed with wash-buffer (3×200 μL). and after blocking the wells with 5% milk in PBS-Tween (100 μL) for 1 hr, the cells were incubated with anti-human ICAM-1 antibody (50 μL; Cell Signaling Technology, Danvers, Mass.) in 1% BSA PBS overnight at 4° C.
The cells were washed with PBS-Tween (3×200 μL) and incubated with the secondary antibody (100 μL; HRP-conjugated anti-rabbit IgG, Dako Ltd., Glostrup, Denmark). The cells were then incubated with of substrate (50 μL) for 2-20 min, followed by the addition of stop solution (50 μL, 1N H2SO4). The ICAM-1 signal was detected by reading […] the absorbance at 450 nm against a reference wavelength of 655 nm using a spectrophotometer. The cells were then washed with PBS-Tween (3×200 μL) and total cell numbers in each well were determined by reading absorbance at 595 nm after Crystal Violet staining (50 μL of a 2% solution in PBS) and elution by 1% SDS solution (100 μL) in distilled water. The measured OD 450-655 readings were corrected for cell number by dividing with the OD595 reading in each well. The inhibition of ICAM-1 expression was calculated at each concentration of test compound by comparison with vehicle control.

d-U937 cells = experiment: Cell viability: MTT assay; type: cell-based, human; settings: 1 μg/mL
Procedure: Differentiated U937 cells were pre-incubated with each test compound (final concentration 1 μg/mL or 10 μg/mL in 200 μL media indicated below) under two protocols: the first for 4 hr in 5% FCS RPMI1640 media and the second in 10% FCS RPMI1640 media for 24 h. The supernatant was replaced with new media (200 μL) and MTT stock solution (10 μL, 5 mg/mL) was added to each well. After incubation for 1 hr the media were removed, DMSO (200 μL) was added to each well and the plates were shaken lightly for 1 hr prior to reading the absorbance at 550 nm. The percentage loss of cell viability was calculated for each well relative to vehicle (0.5% DMSO) treatment. Consequently an apparent increase in cell viability for drug treatment relative to vehicle is tabulated as a negative percentage.

p38MAPKγ (MAPK12) = p38MAPKγ (MAPK12) (Homo sapiens (Human), UniProt P53778); experiment: p38 MAPKγ enzyme inhibition (FRET, Z-LYTE); type: biochemical
Procedure: The enzyme inhibitory activities of compounds disclosed herein were determined by FRET using synthetic peptides labelled with both donor and acceptor fluorophores (Z-LYTE, Invitrogen Ltd., Paisley, UK). […] Development reagent (protease, 5 μL) was added for 1 hr prior to detection in a fluorescence microplate reader (Varioskan® Flash, Thermo Scientific). In all cases, the site-specific protease cleaves non-phosphorylated peptide only and eliminates the FRET signal. Phosphorylation levels of each reaction were calculated using the ratio of coumarin emission (donor) over fluorescein emission (acceptor), for which low ratios indicate high phosphorylation and high ratios indicate low phosphorylation levels.

[2] = molecular target: p38 MAPKα isoform (MAPK14) (Homo sapiens (Human), UniProt Q16539); experiment: p38 MAPKα enzyme inhibition (FRET, Z-LYTE); type: biochemical
Procedure: The enzyme inhibitory activities of compounds disclosed herein were determined by FRET using synthetic peptides labelled with both donor and acceptor fluorophores (Z-LYTE, Invitrogen Ltd., Paisley, UK). The inhibitory activities of test compounds against the p38 MAPKα isoform (MAPK14: Invitrogen), were evaluated indirectly by determining the level of activation/phosphorylation of the down-stream molecule, MAPKAP-K2. […] The mixture was incubated for 1 hr at RT. Development reagent (protease, 5 μL) was added for 1 hr prior to detection in a fluorescence microplate reader (Varioskan® Flash, ThermoFisher Scientific). In all cases, the site-specific protease cleaves non-phosphorylated peptide only and eliminates the FRET signal. Phosphorylation levels of each reaction were calculated using the ratio of coumarin emission (donor) over fluorescein emission (acceptor), for which low ratios indicate high phosphorylation and high ratios indicate low phosphorylation levels.

Sequence of p38 MAPKα isoform (MAPK14) (Q16539 whole entry, canonical isoform): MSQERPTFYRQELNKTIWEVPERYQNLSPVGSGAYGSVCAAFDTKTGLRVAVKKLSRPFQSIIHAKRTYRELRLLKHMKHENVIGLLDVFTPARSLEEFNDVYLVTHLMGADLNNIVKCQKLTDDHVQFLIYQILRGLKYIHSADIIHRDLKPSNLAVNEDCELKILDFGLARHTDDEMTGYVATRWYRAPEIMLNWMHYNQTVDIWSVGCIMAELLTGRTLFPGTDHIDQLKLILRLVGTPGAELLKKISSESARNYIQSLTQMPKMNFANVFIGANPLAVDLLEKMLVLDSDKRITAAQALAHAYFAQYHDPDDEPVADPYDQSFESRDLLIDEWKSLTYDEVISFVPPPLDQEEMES
Sequence of p38MAPKγ (MAPK12) (P53778 whole entry): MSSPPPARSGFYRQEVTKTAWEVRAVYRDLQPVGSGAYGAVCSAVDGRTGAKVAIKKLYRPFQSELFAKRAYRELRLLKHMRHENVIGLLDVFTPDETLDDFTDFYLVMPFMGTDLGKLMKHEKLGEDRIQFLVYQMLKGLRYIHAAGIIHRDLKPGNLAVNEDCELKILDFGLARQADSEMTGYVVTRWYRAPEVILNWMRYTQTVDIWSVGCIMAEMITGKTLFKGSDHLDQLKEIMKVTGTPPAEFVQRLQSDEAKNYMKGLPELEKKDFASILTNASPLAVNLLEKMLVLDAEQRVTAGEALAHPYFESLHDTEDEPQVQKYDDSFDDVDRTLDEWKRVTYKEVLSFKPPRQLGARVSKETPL
Sequence of GSK 3α enzyme isoform (P49840 whole entry, canonical isoform): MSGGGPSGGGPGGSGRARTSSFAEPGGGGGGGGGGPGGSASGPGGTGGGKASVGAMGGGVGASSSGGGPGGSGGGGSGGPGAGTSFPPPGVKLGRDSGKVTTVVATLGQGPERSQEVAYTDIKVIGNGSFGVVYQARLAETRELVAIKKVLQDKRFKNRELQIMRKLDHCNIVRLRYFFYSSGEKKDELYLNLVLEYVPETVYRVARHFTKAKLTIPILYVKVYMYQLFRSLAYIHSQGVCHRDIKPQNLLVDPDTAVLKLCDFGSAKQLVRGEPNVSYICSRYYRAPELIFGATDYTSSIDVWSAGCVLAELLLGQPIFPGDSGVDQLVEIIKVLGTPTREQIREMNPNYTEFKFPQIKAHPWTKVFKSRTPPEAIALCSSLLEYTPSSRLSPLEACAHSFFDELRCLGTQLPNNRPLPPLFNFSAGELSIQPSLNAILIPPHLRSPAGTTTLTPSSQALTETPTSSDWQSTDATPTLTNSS

**Q.** For COc1ccc(Nc2nccc(Oc3ccc(NC(=O)Nc4cc(C(C)(C)C)nn4-c4ccc(C)cc4)c4ccccc34)n2)cc1 [Example 17, 1-(3-(tert-butyl)-1-(p-tolyl)-1H-pyrazol-5-yl)-3-(4-((2-((4-methoxyphenyl)amino)pyrimidin-4-yl)oxy)naphthalen-1-yl)urea], which IC50 (GSK 3α enzyme isoform) is on record?
**A.** > 16300 nM

**Q.** And the IC50 [1]?
**A.** 6.7 nM

**Q.** And the “MTT Assay Cell viability at time point in d-U937 Cells” value (from here on “MTT Assay Cell viability”) (d-U937 cells; 4 h)?
**A.** −ve (−ve and +ve indicate the value is below and above respectively, the no significant effect threshold defined as 30% inhibition at 1 μg/mL at the time point indicated)

**Q.** And the “MTT Assay Cell viability” value (d-U937 cells; 24 h)?
**A.** −ve (−ve and +ve indicate the value is below and above respectively, the no significant effect threshold defined as 30% inhibition at 1 μg/mL at the time point indicated)

**Q.** And the IC50 (p38MAPKγ (MAPK12))?
**A.** > 16300 nM

**Q.** What about the IC50 [2] of the same compound?
**A.** 83 nM

**Q.** For Cc1ccc(-n2nc(C(C)(C)C)cc2NC(=O)Nc2ccc(Oc3ccnc(Nc4ccccc4C(C)C)n3)c3ccccc23)cc1 [Example 20, 1-(3-(tert-butyl)-1-(p-tolyl)-1H-pyrazol-5-yl)-3-(4-((2-((2-isopropylphenyl)amino)pyrimidin-4-yl)oxy)naphthalen-1-yl)urea], which IC50 (GSK 3α enzyme isoform) is on record?
**A.** > 16000 nM

**Q.** And the IC50 [1]?
**A.** 16 nM

**Q.** And the “MTT Assay Cell viability” value (d-U937 cells; 4 h)?
**A.** −ve (−ve and +ve indicate the value is below and above respectively, the no significant effect threshold defined as 30% inhibition at 1 μg/mL at the time point indicated)

**Q.** What about the “MTT Assay Cell viability” value (d-U937 cells; 24 h) of the same compound?
**A.** −ve (−ve and +ve indicate the value is below and above respectively, the no significant effect threshold defined as 30% inhibition at 1 μg/mL at the time point indicated)

**Q.** What about the IC50 (p38MAPKγ (MAPK12)) of the same compound?
**A.** > 16000 nM

**Q.** And the IC50 [2]?
**A.** 9 nM

**Q.** What does the source list for Cc1ccc(-n2nc(C(C)(C)C)cc2NC(=O)Nc2ccc(Oc3ccnc(Nc4ccccc4C)n3)c3ccccc23)cc1 [Example 21, 1-(3-(tert-butyl)-1-(p-tolyl)-1H-pyrazol-5-yl)-3-(4-((2-(o-tolylamino)pyrimidin-4-yl)oxy)naphthalen-1-yl)urea]?
**A.** IC50 (GSK 3α enzyme isoform): > 1670 nM; IC50 [1]: 36 nM; MTT Assay Cell viability at time point in d-U937 Cells (d-U937 cells; 4 h): −ve (−ve and +ve indicate the value is below and above respectively, the no significant effect threshold defined as 30% inhibition at 1 μg/mL at the time point indicated); MTT Assay Cell viability at time point in d-U937 Cells (d-U937 cells; 24 h): −ve (−ve and +ve indicate the value is below and above respectively, the no significant effect threshold defined as 30% inhibition at 1 μg/mL at the time point indicated); IC50 (p38MAPKγ (MAPK12)): > 1670 nM; IC50 [2]: 33 nM

**Q.** How did the IC50 (GSK 3α enzyme isoform) turn out when Cc1ccc(-n2nc(C(C)(C)C)cc2NC(=O)Nc2ccc(Oc3ccnc(Nc4ccc(F)cc4)n3)c3ccccc23)cc1 [Example 23, 1-(3-(tert-butyl)-1-(p-tolyl)-1H-pyrazol-5-yl)-3-(4-((2-((4-fluorophenyl)amino)pyrimidin-4-yl)oxy)naphthalen-1-yl)urea] was run?
**A.** > 1660 nM

**Q.** And the IC50 [1]?
**A.** 4.2 nM

**Q.** What about the “MTT Assay Cell viability” value (d-U937 cells; 4 h) of the same compound?
**A.** −ve (−ve and +ve indicate the value is below and above respectively, the no significant effect threshold defined as 30% inhibition at 1 μg/mL at the time point indicated)

**Q.** And the “MTT Assay Cell viability” value (d-U937 cells; 24 h)?
**A.** −ve (−ve and +ve indicate the value is below and above respectively, the no significant effect threshold defined as 30% inhibition at 1 μg/mL at the time point indicated)

**Q.** What about the IC50 (p38MAPKγ (MAPK12)) of the same compound?
**A.** > 1660 nM

**Q.** What about the IC50 [2] of the same compound?
**A.** 212 nM

**Q.** How did the IC50 (GSK 3α enzyme isoform) turn out when COc1ccc(Nc2nccc(Oc3ccc(NC(=O)Nc4cc(C(C)(C)C)nn4-c4ccc(C)cc4)c4ccccc34)n2)cc1Cl [Example 28, 1-(3-(tert-butyl)-1-(p-tolyl)-1H-pyrazol-5-yl)-3-(4-((2-((3-chloro-4-methoxyphenyl)amino)pyrimidin-4-yl)oxy)naphthalen-1-yl)urea] was run?
**A.** > 1540 nM

**Q.** And the IC50 [1]?
**A.** 3 nM

**Q.** What about the “MTT Assay Cell viability” value (d-U937 cells; 4 h) of the same compound?
**A.** −ve (−ve and +ve indicate the value is below and above respectively, the no significant effect threshold defined as 30% inhibition at 1 μg/mL at the time point indicated)

**Q.** And the “MTT Assay Cell viability” value (d-U937 cells; 24 h)?
**A.** −ve (−ve and +ve indicate the value is below and above respectively, the no significant effect threshold defined as 30% inhibition at 1 μg/mL at the time point indicated)

**Q.** What about the IC50 (p38MAPKγ (MAPK12)) of the same compound?
**A.** > 1540 nM

**Q.** What about the IC50 [2] of the same compound?
**A.** 1420 nM

**Q.** With Cc1ccc(-n2nc(C(C)(C)C)cc2NC(=O)Nc2ccc(Oc3ccnc(Nc4ccc(O)cc4F)n3)c3ccccc23)cc1 [Example 30, 1-(3-(tert-butyl)-1-(p-tolyl)-1H-pyrazol-5-yl)-3-(4-((2-((2-fluoro-4-hydroxyphenyl)amino)pyrimidin-4-yl)oxy)naphthalen-1-yl)urea] as the compound, how does the IC50 (GSK 3α enzyme isoform) read?
**A.** > 1620 nM

**Q.** What about the IC50 [1] of the same compound?
**A.** 11 nM

**Q.** And the “MTT Assay Cell viability” value (d-U937 cells; 4 h)?
**A.** −ve (−ve and +ve indicate the value is below and above respectively, the no significant effect threshold defined as 30% inhibition at 1 μg/mL at the time point indicated)

**Q.** And the “MTT Assay Cell viability” value (d-U937 cells; 24 h)?
**A.** −ve (−ve and +ve indicate the value is below and above respectively, the no significant effect threshold defined as 30% inhibition at 1 μg/mL at the time point indicated)

**Q.** And the IC50 (p38MAPKγ (MAPK12))?
**A.** > 1620 nM

**Q.** What about the IC50 [2] of the same compound?
**A.** 68 nM

**Q.** What does the source list for Cc1ccc(-n2nc(C(C)(C)C)cc2NC(=O)Nc2ccc(Oc3ccnc(Nc4ccc(O)cc4Cl)n3)c3ccccc23)cc1 [Example 31, 1-(3-(tert-butyl)-1-(p-tolyl)-1H-pyrazol-5-yl)-3-(4-((2-((2-chloro-4-hydroxyphenyl)amino)pyrimidin-4-yl)oxy)naphthalen-1-yl)urea]?
**A.** IC50 (GSK 3α enzyme isoform): > 1580 nM; IC50 [1]: 80 nM; MTT Assay Cell viability at time point in d-U937 Cells (d-U937 cells; 4 h): −ve (−ve and +ve indicate the value is below and above respectively, the no significant effect threshold defined as 30% inhibition at 1 μg/mL at the time point indicated); MTT Assay Cell viability at time point in d-U937 Cells (d-U937 cells; 24 h): −ve (−ve and +ve indicate the value is below and above respectively, the no significant effect threshold defined as 30% inhibition at 1 μg/mL at the time point indicated); IC50 (p38MAPKγ (MAPK12)): > 1580 nM; IC50 [2]: 118 nM
